# Assay results from ChEMBL document CHEMBL1201862, “PubChem BioAssay data set” (2004).
#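 In this assay, cells in 96-well plates receive the compound at five concentrations for 48 hours. Endpoints are linearly interpolated between the surrounding concentrations. GI50: concentration for 50% inhibition of growth.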 The source made the active and inactive calls. Rule as the data show it: active = GI50 up to about 1.1 µM and inactive = higher.
# Experiments:
# Test in all cases: NCI anticancer screen, dose series, 48 h
# NCI-H522 = test system: NCI-H522
# HOP-62 = test system: HOP-62
# HCT-116 = test system: HCT-116
# TK-10 = test system: TK-10
# XF498 = test system: XF498
# COLO 205 = test system: COLO 205
# SK-OV-3 = test system: SK-OV-3
# DMS-114 = test system: DMS-114
# HT-29 = test system: HT-29
# SNB-19 = test system: SNB-19
# A549 = test system: A549
# RXF 631 = test system: RXF 631
# ACHN = test system: ACHN
# MOLT-4 = test system: MOLT-4
# SK-MEL-28 = test system: SK-MEL-28
# DMS-273 = test system: DMS-273
# SN12C = test system: SN12C
# RPMI-8226 = test system: RPMI-8226
# SK-MEL-5 = test system: SK-MEL-5
# 786-0 = test system: 786-0
# DLD-1 = test system: DLD-1
# CCRF-CEM = test system: CCRF-CEM
# Malme-3M = test system: Malme-3M
# NCI-H23 = test system: NCI-H23
# KM12 = test system: KM12
# SNB-75 = test system: SNB-75
# HOP-18 = test system: HOP-18
# LOX IMVI = test system: LOX IMVI
# HL-60 = test system: HL-60
# RXF 393 = test system: RXF 393
# SR = test system: SR
# HCT-15 = test system: HCT-15
# SF-268 = test system: SF-268
# OVCAR-4 = test system: OVCAR-4
# NCI-H460 = test system: NCI-H460
# M14 = test system: M14
# SF-295 = test system: SF-295
# SW-620 = test system: SW-620
# NCI-H226 = test system: NCI-H226
# OVCAR-5 = test system: OVCAR-5
# HOP-92 = test system: HOP-92
# U-251 = test system: U-251
# SNB-78 = test system: SNB-78
# CAKI-1 = test system: CAKI-1
# UACC-257 = test system: UACC-257
# HCC 2998 = test system: HCC 2998
# LXFL 529 = test system: LXFL 529
# SK-MEL-2 = test system: SK-MEL-2
# K562 = test system: K562
# EKVX = test system: EKVX
# IGROV-1 = test system: IGROV-1
# OVCAR-8 = test system: OVCAR-8
# KM-20L2 = test system: KM-20L2
# OVCAR-3 = test system: OVCAR-3
# UO-31 = test system: UO-31
# SF-539 = test system: SF-539
# UACC-62 = test system: UACC-62
# A498 = test system: A498
smiles,measurement,setting,value
CN1NC(c2ccccc2)=C(C#N)C(=O)CC1c1ccccc1Cl (stereo not drawn),GI50,NCI-H522,65.2 µM (inactive)
same,GI50,HOP-62,25.3 µM (inactive)
same,GI50,HCT-116,> 100 µM (inactive)
same,GI50,TK-10,> 100 µM (inactive)
same,GI50,XF498,> 100 µM (inactive)
same,GI50,COLO 205,> 100 µM (inactive)
same,GI50,SK-OV-3,> 100 µM (inactive)
same,GI50,DMS-114,> 100 µM (inactive)
same,GI50,HT-29,> 100 µM (inactive)
same,GI50,SNB-19,> 100 µM (inactive)
same,GI50,A549,> 100 µM (inactive)
same,GI50,RXF 631,> 100 µM (inactive)
same,GI50,ACHN,> 100 µM (inactive)
same,GI50,MOLT-4,> 100 µM (inactive)
same,GI50,SK-MEL-28,> 100 µM (inactive)
same,GI50,DMS-273,> 100 µM (inactive)
same,GI50,SN12C,> 100 µM (inactive)
same,GI50,RPMI-8226,> 100 µM (inactive)
same,GI50,SK-MEL-5,69.8 µM (inactive)
same,GI50,786-0,> 100 µM (inactive)
same,GI50,DLD-1,61.4 µM (inactive)
same,GI50,CCRF-CEM,> 100 µM (inactive)
same,GI50,Malme-3M,> 100 µM (inactive)
same,GI50,NCI-H23,> 100 µM (inactive)
same,GI50,KM12,> 100 µM (inactive)
same,GI50,SNB-75,86.3 µM (inactive)
same,GI50,HOP-18,67.3 µM (inactive)
same,GI50,LOX IMVI,> 100 µM (inactive)
same,GI50,HL-60,> 100 µM (inactive)
same,GI50,RXF 393,> 100 µM (inactive)
same,GI50,SR,> 100 µM (inactive)
same,GI50,HCT-15,63.4 µM
same,GI50,SF-268,> 100 µM (inactive)
same,GI50,OVCAR-4,> 100 µM (inactive)
same,GI50,NCI-H460,> 100 µM (inactive)
same,GI50,M14,> 100 µM (inactive)
same,GI50,SF-295,> 100 µM (inactive)
same,GI50,SW-620,> 100 µM (inactive)
same,GI50,NCI-H226,> 100 µM (inactive)
same,GI50,OVCAR-5,> 100 µM (inactive)
same,GI50,HOP-92,> 100 µM (inactive)
same,GI50,U-251,> 100 µM (inactive)
same,GI50,SNB-78,> 100 µM (inactive)
same,GI50,CAKI-1,> 100 µM (inactive)
same,GI50,UACC-257,> 100 µM (inactive)
same,GI50,HCC 2998,> 100 µM (inactive)
same,GI50,LXFL 529,> 100 µM (inactive)
same,GI50,SK-MEL-2,> 100 µM (inactive)
CCCCOCN/C(N)=N/C#N,GI50,NCI-H522,> 100 µM (inactive)
same,GI50,HOP-62,> 100 µM (inactive)
same,GI50,HCT-116,> 100 µM (inactive)
same,GI50,K562,73.6 µM (inactive)
same,GI50,TK-10,> 100 µM (inactive)
same,GI50,XF498,> 100 µM (inactive)
same,GI50,COLO 205,38.3 µM (inactive)
same,GI50,SK-OV-3,> 100 µM (inactive)
same,GI50,DMS-114,> 100 µM (inactive)
same,GI50,EKVX,> 100 µM (inactive)
same,GI50,HT-29,> 100 µM (inactive)
same,GI50,SNB-19,> 100 µM (inactive)
same,GI50,A549,> 100 µM (inactive)
same,GI50,RXF 631,> 100 µM (inactive)
same,GI50,ACHN,> 100 µM (inactive)
same,GI50,MOLT-4,> 100 µM (inactive)
same,GI50,SK-MEL-28,> 100 µM (inactive)
same,GI50,DMS-273,68.7 µM (inactive)
same,GI50,IGROV-1,> 100 µM (inactive)
same,GI50,SN12C,> 100 µM (inactive)
same,GI50,RPMI-8226,> 100 µM (inactive)
same,GI50,SK-MEL-5,> 100 µM (inactive)
same,GI50,786-0,33.9 µM (inactive)
same,GI50,DLD-1,> 100 µM (inactive)
same,GI50,OVCAR-8,> 100 µM (inactive)
same,GI50,KM-20L2,> 100 µM (inactive)
same,GI50,Malme-3M,> 100 µM (inactive)
same,GI50,NCI-H23,> 100 µM (inactive)
same,GI50,KM12,71.4 µM (inactive)
same,GI50,SNB-75,> 100 µM (inactive)
same,GI50,HOP-18,> 100 µM (inactive)
same,GI50,LOX IMVI,21.5 µM (inactive)
same,GI50,HL-60,> 100 µM (inactive)
same,GI50,OVCAR-3,> 100 µM (inactive)
same,GI50,RXF 393,> 100 µM (inactive)
same,GI50,UO-31,> 100 µM (inactive)
same,GI50,SR,19.6 µM (inactive)
same,GI50,HCT-15,21.9 µM
same,GI50,SF-268,> 100 µM (inactive)
same,GI50,OVCAR-4,64.1 µM (inactive)
same,GI50,NCI-H460,> 100 µM (inactive)
same,GI50,M14,> 100 µM (inactive)
same,GI50,SF-295,> 100 µM (inactive)
same,GI50,SW-620,18.2 µM (inactive)
same,GI50,NCI-H226,> 100 µM (inactive)
same,GI50,OVCAR-5,> 100 µM (inactive)
same,GI50,HOP-92,> 100 µM (inactive)
same,GI50,SF-539,> 100 µM (inactive)
same,GI50,U-251,> 100 µM (inactive)
same,GI50,SNB-78,> 100 µM (inactive)
same,GI50,CAKI-1,> 100 µM (inactive)
same,GI50,UACC-257,> 100 µM (inactive)
same,GI50,HCC 2998,> 100 µM (inactive)
same,GI50,LXFL 529,> 100 µM (inactive)
same,GI50,SK-MEL-2,> 100 µM (inactive)
same,GI50,UACC-62,> 100 µM (inactive)
same,GI50,A498,> 100 µM (inactive)
CCCN(CCC)C(=O)c1nc(N)nc(-c2ccc(OC)cc2)c1-c1ccc(OC)cc1,GI50,NCI-H522,98.9 µM (inactive)
same,GI50,HCT-116,> 100 µM (inactive)
same,GI50,K562,84.1 µM (inactive)
same,GI50,TK-10,> 100 µM (inactive)
same,GI50,XF498,> 100 µM (inactive)
same,GI50,COLO 205,> 100 µM (inactive)
same,GI50,SK-OV-3,> 100 µM (inactive)
same,GI50,DMS-114,84.9 µM (inactive)
same,GI50,EKVX,> 100 µM (inactive)
same,GI50,HT-29,> 100 µM (inactive)
same,GI50,SNB-19,> 100 µM (inactive)
same,GI50,A549,> 100 µM (inactive)
same,GI50,RXF 631,> 100 µM (inactive)
same,GI50,ACHN,> 100 µM (inactive)
same,GI50,MOLT-4,11.2 µM (inactive)
same,GI50,SK-MEL-28,> 100 µM (inactive)
same,GI50,DMS-273,> 100 µM (inactive)
same,GI50,IGROV-1,> 100 µM (inactive)
same,GI50,SN12C,> 100 µM (inactive)
same,GI50,RPMI-8226,29 µM (inactive)
same,GI50,SK-MEL-5,> 100 µM (inactive)
same,GI50,786-0,> 100 µM (inactive)
same,GI50,DLD-1,> 100 µM (inactive)
same,GI50,CCRF-CEM,> 100 µM (inactive)
same,GI50,OVCAR-8,> 100 µM (inactive)
same,GI50,KM-20L2,> 100 µM (inactive)
same,GI50,Malme-3M,> 100 µM (inactive)
same,GI50,NCI-H23,> 100 µM (inactive)
same,GI50,KM12,> 100 µM (inactive)
same,GI50,SNB-75,37.5 µM (inactive)
same,GI50,HOP-18,46.7 µM (inactive)
same,GI50,HL-60,73.8 µM (inactive)
same,GI50,OVCAR-3,> 100 µM (inactive)
same,GI50,UO-31,> 100 µM (inactive)
same,GI50,HCT-15,> 100 µM
same,GI50,SF-268,> 100 µM (inactive)
same,GI50,OVCAR-4,47.9 µM (inactive)
same,GI50,NCI-H460,> 100 µM (inactive)
same,GI50,M14,> 100 µM (inactive)
same,GI50,SF-295,> 100 µM (inactive)
same,GI50,SW-620,> 100 µM (inactive)
same,GI50,NCI-H226,> 100 µM (inactive)
same,GI50,OVCAR-5,> 100 µM (inactive)
same,GI50,HOP-92,82.6 µM (inactive)
same,GI50,SF-539,> 100 µM (inactive)
same,GI50,U-251,> 100 µM (inactive)
same,GI50,SNB-78,80.5 µM (inactive)
same,GI50,CAKI-1,> 100 µM (inactive)
same,GI50,UACC-257,> 100 µM (inactive)
same,GI50,LXFL 529,82 µM (inactive)
same,GI50,SK-MEL-2,> 100 µM (inactive)
same,GI50,UACC-62,> 100 µM (inactive)
same,GI50,A498,> 100 µM (inactive)
